These results are taken from US9840512B2, “Antidiabetic bicyclic compounds” (Merck Sharp & Dohme Corp., priority 2013, dated 2017).

The first test deals with human GPR40 (Homo sapiens, UniProt O14842). As to the kind of experiment: Inositol Phosphate Turnover (IP1) Assay 2. Format: cell-based. Also on record: expressed in transfected cells. The settings on record: HEK cells stably expressing human GPR40, Table 2, read-out: Human IP1. The protocol: Human and mouse GPR40 stable cell-lines were generated in CHO cells stably expressing NFAT BLA (Beta-lactamase). A human GPR40 stable cell-line was generated in HEK cells stably expressing the aequorin expressing reporter. The expression plasmids were transfected using lipofectamine (Life Technologies) following manufacturer's instructions. Stable cell-lines were generated following drug selection.
Chain of human GPR40 (O14842 whole entry): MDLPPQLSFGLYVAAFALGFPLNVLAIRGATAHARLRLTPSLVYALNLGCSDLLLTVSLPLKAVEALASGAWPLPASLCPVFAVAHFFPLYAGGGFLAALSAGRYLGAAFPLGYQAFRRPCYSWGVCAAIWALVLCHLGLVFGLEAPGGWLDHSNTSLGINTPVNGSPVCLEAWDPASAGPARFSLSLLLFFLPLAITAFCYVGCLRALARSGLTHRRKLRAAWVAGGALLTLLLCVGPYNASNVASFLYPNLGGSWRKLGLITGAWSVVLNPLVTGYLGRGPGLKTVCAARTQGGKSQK
The assay is performed in 384-well format. HEK cells stably expressing human GPR40 are plated at 15,000 cells per well in growth medium (DMEM/10% fetal calf serum). Cell plates are then incubated 16 hours at 37 degrees in a 5% CO2 incubator.
Measurement of Inositol Phosphate Turnover (IP1) is performed using the CisBio IP-One kit (Part number 62IPAPEB). After the 16 hour incubation, the cells are washed with HEPES buffer and 10 ul of stimulation buffer (prepared as described in the kit) is added to each well. In a separate plate, compounds are diluted in DMSO (400-fold over the final concentration in the assay well) and 25 nl is acoustically transferred to the appropriate well in the assay cell plate. The plates are then incubated for 60 minutes at 37 degrees. 10 ul of detection buffer (also prepared as described in the IP-One kit) is added to each well and the plates are incubated for 60 minutes in the dark. The plates are then read in a Perkin Elmer EnVision or equivalent reader able to measure FRET.
In the case of `COc1ccc(F)c(-c2cnc(C3CCc4ccc([C@H](C5CC5)[C@H](C)C(=O)O)cc4O3)cc2OC)c1` (single isomer, unassigned) [Example 108a], the EC50 was determined as 263 nM. Same read-out and setting: under `COc1ccc(F)c(-c2ccc(C3CCc4ccc([C@@H](CC(=O)O)C5CC5)cc4O3)cc2)c1` (single isomer, unassigned) [Example 61] stands 36 nM. `COc1ccc(F)c(-c2ccc(C3CCc4ccc([C@H](C5CC5)[C@H](C)C(=O)O)cc4O3)nc2)c1` (single isomer, unassigned) [Example 97c]: the EC50 turned out to be 2.9 nM.

For `COc1ccc(F)c(-c2ccc(C3CCc4ccc(C(C5CCC5)C(C)C(=O)O)cc4O3)cc2)c1` (single isomer, unassigned) [Example 156], the EC50 came out at 209 nM. Same read-out and setting: under `C[C@H](C(=O)O)[C@H](c1ccc2c(c1)OC(c1ccc(-c3cc(O)ccc3F)cc1)CC2)C1CC1` (single isomer, unassigned) [Example 68] stands 1.9 nM. On to `COc1cccc(-c2ccc(C3CCc4ccc([C@@H](CC(=O)O)C5CC5)cc4O3)cc2)n1` (stereo partly drawn) [Example 75], for which the EC50 came out at 304 nM. On to `COc1cc(-c2ccc(C3CCc4ccc([C@H](C5CC5)[C@H](C)C(=O)O)cc4O3)cc2)c(F)cn1` (single isomer, unassigned) [Example 117a], for which the EC50 came to 0.89 nM. On the same count and under the same terms, with `COc1ccc(F)c(-c2ccc(C3CCc4ccc(C(C)C(C)C(=O)O)cc4O3)cc2)c1` (single isomer, unassigned) [Example 147b] the figure was 3180 nM; with `COc1ccc(F)c(-c2cnc(C3CCc4ccc([C@H](C5CC5)[C@H](C)C(=O)O)cc4O3)c(C)c2)c1` (single isomer, unassigned) [Example 115b], 17.4 nM. Same read-out and setting: with `COc1ccc(F)c(-c2ccc(C3CCc4ccc(C(C)CC(=O)O)cc4O3)cc2)c1` (single isomer, unassigned) [Example 138, (S or R)-3-((R or S)-2-(2′-fluoro-5′-methoxy-[1,1′-biphenyl]-4-yl)chroman-7-yl)butanoic acid] the figure was 1200 nM; with `COc1cncc(-c2ccc(C3CCc4ccc([C@@H](CC(=O)O)C5CC5)cc4O3)c(F)c2)n1` (mixture of isomers) [Example 93], 488 nM; with `COc1cc(-c2ccc(C3CCc4ccc([C@H](C5CC5)[C@H](C)C(=O)O)cc4O3)nc2)ccn1` (single isomer, unassigned) [Example 120b], 1.9 nM.

Consider `O=C(O)C[C@H](c1ccc2c(c1)OC(c1ccc(-c3cccc(OC4CC4)c3)cc1)CC2)C1CC1` (stereo partly drawn) [Example 78], for which the EC50 came to 1700 nM. The same measure, in the same setting: under `COc1ccc(F)c(-c2ccc(C3CCc4ccc([C@H](C5CC5)[C@@H](C)C(=O)O)cc4O3)nc2)c1` (single isomer, unassigned) [Example 97d] stands 43 nM; under `COc1ccc(F)c(-c2ccc(C3CCc4ccc([C@H](C5CC5)[C@H](C)C(=O)O)cc4O3)nc2C(OC)C(C)(C)C)c1` (single isomer, unassigned) [Example 135d], 44 nM. With `COc1ccc(F)c(-c2ccc(C3CCc4ccc([C@@H](CC(=O)O)C5CC5)cc4O3)cc2C(OC)C2CC2)c1` (mixture of isomers) [Example 126], the EC50 is 14.1 nM. On the same count and under the same terms, under `COc1ccc(F)c(-c2ccc(C3CCc4ccc([C@@H](CC(=O)O)C5CC5)cc4O3)cc2[C@@H]2CCCC2(C)C)c1` (mixture of isomers) [Example 103] stands 6.2 nM; under `O=C(O)C[C@H](c1ccc2c(c1)OC(c1ccc(-c3cccc(OCC(F)(F)F)c3)cc1)CC2)C1CC1` (stereo partly drawn) [Example 73], 1200 nM; under `COc1ccc(F)c(-c2cnc(C3CCc4ccc([C@H](C5CC5)[C@H](C)C(=O)O)cc4O3)cc2OC)c1` (single isomer, unassigned) [Example 108b], 5.8 nM.

In the case of `COc1ccc(F)c(-c2ccc([C@@H]3CCc4ccc([C@H](C5CC5)[C@H](C)C(=O)O)cc4O3)cc2)c1` (single isomer, unassigned) [Example 63], the EC50 was 3.3 nM. `COc1ccc(F)c(-c2ccc(C3CCc4ccc([C@@H](CC(=O)O)C5CC5)cc4O3)cc2C(OC)C(C)(C)C)c1` (single isomer, unassigned) [Example 125b]: the EC50 was 8.6 nM. As to `COc1cc(F)cc(-c2ccc(C3CCc4ccc([C@@H](CC(=O)O)C5CC5)cc4O3)cc2)c1` (stereo partly drawn) [Example 72], the EC50 amounted to 116 nM. On the same count and under the same terms, with `COc1ccc(F)c(-c2ccc(C3CCc4ccc([C@H](C5CC5)[C@H](C)C(=O)O)cc4O3)nc2C(F)(F)F)c1` (single isomer, unassigned) [Example 111a] the figure was 6 nM; with `COc1cc(-c2ccc(C3CCc4ccc([C@H](C5CC5)[C@H](C)C(=O)O)cc4O3)c(F)c2)c(F)cn1` (single isomer, unassigned) [Example 109a], 0.17 nM. As for `O=C(O)C[C@H](c1ccc2c(c1)OC(c1ccc(-c3cc(OC(F)(F)F)ccc3F)cc1)CC2)C1CC1` (stereo partly drawn) [Example 76], the EC50 was determined as 650 nM.

As to `COc1ccc(F)c(-c2ccc(C3CCc4ccc(C(C5CCC5)C(C)C(=O)O)cc4O3)cc2)c1` (single isomer, unassigned) [Example 159], the EC50 stood at 1.8 nM.

Consider `COc1cc(-c2ccc(C3CCc4ccc([C@@H](CC(=O)O)C5CC5)cc4O3)c(F)c2)ccn1` (mixture of isomers) [Example 96], for which the EC50 amounted to 14 nM. The same measure, in the same setting: with `CN1CCOc2cc(-c3ccc(C4CCc5ccc([C@@H](CC(=O)O)C6CC6)cc5O4)c(F)c3)ccc21` (mixture of isomers) [Example 87] the figure was 1390 nM.

Still in this test, the particulars now being: HEK cells stably expressing human GPR40, Table 3, read-out: Human IP1 activity.
In the case of `CC#C[C@@H](CC(=O)O)c1ccc2c(c1)OCC(c1ccc(-c3cc(OC)ccc3F)cc1)O2` (stereo partly drawn) [Example 175], the EC50 was 220 nM.

Consider `C[C@H](C(=O)O)[C@H](c1ccc2c(c1)O[C@H](C1CN([C@@H](C)c3cc(C(F)(F)F)ccc3C(F)(F)F)C1)CO2)C1CC1` [Example 190], for which the EC50 is 20.3 nM.

With `COc1ccc(F)c(-c2ccc([C@H]3COc4ccc([C@H](C5CC5)[C@@H](C)C(=O)O)cc4O3)cc2Cl)c1` [Example 183], the EC50 turned out to be 99.6 nM.

Take `COc1ccc(F)c(-c2ccc(C3COc4ccc([C@H](C5CC5)[C@H](C)C(=O)O)c(F)c4O3)cc2)c1` (single isomer, unassigned) [Example 186]: the EC50 is 7.9 nM. On the same count and under the same terms, under `C[C@H](C(=O)O)[C@H](c1ccc2c(c1)OC(C1CN(Cc3cc(C(F)(F)F)ccc3C(F)(F)F)C1)CO2)C1CC1` (single isomer, unassigned) [Example 188] stands 5.2 nM. Still for that read-out and setting: under `COc1ccc(F)c(-c2ccc(C3COc4ccc([C@H](C5CC5)[C@H](C)C(=O)O)cc4O3)nc2)c1` (single isomer, unassigned) [Example 160] stands 1.6 nM; under `CC#C[C@@H](CC(=O)O)c1ccc2c(c1)OCC(c1ccc(-c3cc(OC)ccc3F)cc1)O2` (single isomer, unassigned) [Example 176], 774 nM. The same measure, in the same setting: with `COc1ccc(F)c(-c2ccc([C@@H]3COc4ccc([C@H](C5CC5)[C@H](C)C(=O)O)cc4O3)c(C(F)(F)F)n2)c1` [Example 162, (2S,3R)-3-cyclopropyl-3-((R)-3-(6-(2-fluoro-5-methoxyphenyl)-2-(trifluoromethyl)-pyridin-3-yl)-2,3-dihydrobenzo[b][1,4]dioxin-6-yl)-2-methylpropanoic acid] the figure was 8.2 nM.
